Test results: patent US20180194762A1 (Pharmacyclics LLC, priority 2017, published 2018)
Read-outs that look alike come from different tables or passages of the source.

What was measured:
Type in all cases: biochemical
Btk = molecular target: T1, Btk (Homo sapiens, UniProt Q06187); experiment: Btk in vitro inhibitory activity (one of Method A TR-FRET, Method B electrophoretic mobility shift, Method C radiometric filter binding)
T1 construct: purified from insect cells as a full-length construct containing a N-terminal 6X-His tag; His6 (N); made in house; host or cells: insect cells (Method C)
T1 sequence (Q06187 whole entry): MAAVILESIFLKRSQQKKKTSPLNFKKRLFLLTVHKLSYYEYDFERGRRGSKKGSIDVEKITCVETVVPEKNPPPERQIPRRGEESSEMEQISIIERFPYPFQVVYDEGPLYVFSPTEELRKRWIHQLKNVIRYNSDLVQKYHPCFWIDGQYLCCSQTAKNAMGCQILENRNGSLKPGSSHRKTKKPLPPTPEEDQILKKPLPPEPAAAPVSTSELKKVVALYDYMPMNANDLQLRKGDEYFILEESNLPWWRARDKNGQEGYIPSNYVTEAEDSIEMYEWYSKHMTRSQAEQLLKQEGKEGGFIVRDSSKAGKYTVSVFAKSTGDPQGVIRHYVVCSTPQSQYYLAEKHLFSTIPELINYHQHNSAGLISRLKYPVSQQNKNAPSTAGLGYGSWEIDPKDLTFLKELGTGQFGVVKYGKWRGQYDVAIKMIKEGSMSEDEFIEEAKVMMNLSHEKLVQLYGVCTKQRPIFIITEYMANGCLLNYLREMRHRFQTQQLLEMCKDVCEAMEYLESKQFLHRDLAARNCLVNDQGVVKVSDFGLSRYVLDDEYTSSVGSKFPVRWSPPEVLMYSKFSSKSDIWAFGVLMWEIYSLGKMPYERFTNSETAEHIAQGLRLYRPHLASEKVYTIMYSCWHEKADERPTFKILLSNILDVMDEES
Method in brief: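 Method A: TR-FRET with 0.5 nM Btk at [ATP]=Km, EDTA-quenched, 665/615 nm ratio; Ki(app) converted to IC50. Method B: 1 nM full-length His6 human BTK, 1 μM FAM peptide, pH 7.5, mobility-shift product/sum ratio, 12-point 4-parameter fit. Method C: radiometric filter binding, 8 nM His-tagged BTK, 0.2 mg/mL poly-Glu-Tyr.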

TEC = molecular target: T2, TEC (Homo sapiens, UniProt P42680); experiment: Inhibition of a panel of kinases (in vitro HotSpot kinase assay, 33P-ATP, 1 μM ATP); conditions: for IC50: HotSpot kinase assay, 1 μM ATP; for TEC/Btk: ratio of TEC IC50 to Btk IC50 (selectivity)
T2 sequence (P42680 1-631): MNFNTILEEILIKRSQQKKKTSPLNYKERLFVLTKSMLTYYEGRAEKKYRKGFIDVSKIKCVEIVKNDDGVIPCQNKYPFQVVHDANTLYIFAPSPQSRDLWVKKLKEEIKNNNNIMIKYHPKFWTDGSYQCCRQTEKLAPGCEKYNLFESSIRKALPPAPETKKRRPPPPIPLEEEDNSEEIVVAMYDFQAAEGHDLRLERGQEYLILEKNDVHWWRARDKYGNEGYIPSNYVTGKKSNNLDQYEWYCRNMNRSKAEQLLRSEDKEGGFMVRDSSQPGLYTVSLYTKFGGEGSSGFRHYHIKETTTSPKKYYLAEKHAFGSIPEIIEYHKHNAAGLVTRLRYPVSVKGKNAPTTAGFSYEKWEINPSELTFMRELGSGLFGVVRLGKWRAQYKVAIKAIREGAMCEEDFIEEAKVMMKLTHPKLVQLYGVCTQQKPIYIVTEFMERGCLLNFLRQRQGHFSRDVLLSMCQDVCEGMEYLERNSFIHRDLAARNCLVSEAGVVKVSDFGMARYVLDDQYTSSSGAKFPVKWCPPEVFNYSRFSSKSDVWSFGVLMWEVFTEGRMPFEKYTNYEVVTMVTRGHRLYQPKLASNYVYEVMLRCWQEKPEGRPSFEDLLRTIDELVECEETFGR
Method in brief: (§1)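 Purified kinase enzymes were incubated with an appropriate substrate and 33P-labelled ATP at 1 μM ATP. Inhibition was measured radiometrically from incorporation of the 33P label.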

panel of kinases = molecular target: T3, panel of kinases (Homo sapiens, UniProt P51813); experiment: Inhibition of a panel of kinases (in vitro HotSpot kinase assay, 33P-ATP, 1 μM ATP), other kinases; conditions: BMX wild-type, read-out: BMX-WT IC50
T3 sequence (P51813 1-675): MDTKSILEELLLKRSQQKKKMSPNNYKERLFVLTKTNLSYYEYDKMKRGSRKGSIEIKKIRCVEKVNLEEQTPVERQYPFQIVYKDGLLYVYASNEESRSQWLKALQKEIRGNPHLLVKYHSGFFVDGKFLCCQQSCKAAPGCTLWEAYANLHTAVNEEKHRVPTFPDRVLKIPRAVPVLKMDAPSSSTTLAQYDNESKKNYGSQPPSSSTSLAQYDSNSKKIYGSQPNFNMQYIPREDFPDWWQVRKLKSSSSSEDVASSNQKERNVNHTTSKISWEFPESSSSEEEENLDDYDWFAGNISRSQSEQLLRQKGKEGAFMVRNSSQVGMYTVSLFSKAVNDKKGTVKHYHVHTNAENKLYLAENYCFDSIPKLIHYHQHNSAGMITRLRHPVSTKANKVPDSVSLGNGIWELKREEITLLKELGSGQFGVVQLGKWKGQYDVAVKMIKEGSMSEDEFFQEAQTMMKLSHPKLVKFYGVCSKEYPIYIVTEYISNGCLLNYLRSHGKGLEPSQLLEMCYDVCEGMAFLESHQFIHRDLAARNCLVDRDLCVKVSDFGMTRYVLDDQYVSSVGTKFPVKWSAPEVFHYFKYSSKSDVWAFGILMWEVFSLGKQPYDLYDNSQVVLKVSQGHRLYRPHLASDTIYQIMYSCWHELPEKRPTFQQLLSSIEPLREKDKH
Method in brief: as §1

[1] = wild-type Btk, read-out: Btk-WT IC50
[2] = method is one of A, B or C, not stated which, read-out: IC50 values against Btk

## C=CC(=O)N1CC[C@@H](Nc2n[nH]c3nccc(-c4ccc(CNC(=O)c5ccc(C(F)(F)F)cc5)c(F)c4)c23)C1 [Compound 48, (R)—N-(4-(3-((1-acryloylpyrrolidin-3-yl)amino)-1H-pyrazolo[3,4-b]pyridin-4-yl)-2-fluorobenzyl)-4-(trifluoromethyl)benzamide]
Btk; [1]
  IC50: 0.798 nM
TEC
  IC50: 65 nM
  TEC/Btk: 81
Panel of kinases
  IC50: 46 nM

## C=CC(=O)N1CC[C@@H](Nc2n[nH]c3nccc(-c4ccc(CNC(=O)c5ccc(OC)cc5)c(F)c4)c23)C1 [Compound 49, (R)—N-(4-(3-((1-acryloylpyrrolidin-3-yl)amino)-1H-pyrazolo[3,4-b]pyridin-4-yl)-2-fluorobenzyl)-4-methoxybenzamide]
Btk; [1]
  IC50: 1.78 nM
TEC
  IC50: 70 nM
  TEC/Btk: 39
Panel of kinases
  IC50: 89 nM

## CC(C)(C)c1nc(C(=O)NCc2ccc(-c3ccnc4[nH]nc(N[C@H]5CCNC5)c34)cc2F)no1 [Compound 50, 5-tert-butyl-N-{[2-fluoro-4-(3-{[(3S)-pyrrolidin-3-yl]amino}-1H-pyrazolo[3,4-b]pyridin-4-yl)phenyl]methyl}-1,2,4-oxadiazole-3-carboxamide]
Btk; [1]
  IC50: 3.2 nM
TEC
  IC50: 2960 nM
  TEC/Btk: 925
Panel of kinases
  IC50: 7440 nM

## CC#CC(=O)N1CC[C@@H](Nc2n[nH]c3nccc(-c4ccc(CNC(=O)c5noc(C(C)(C)C)n5)c(F)c4)c23)C1 [Example 24, N-{[4-(3-{[(3R)-1-(but-2-ynoyl)pyrrolidin-3-yl]amino}-1H-pyrazolo[3,4-b]pyridin-4-yl)-2-fluorophenyl]methyl}-5-tert-butyl-1,2,4-oxadiazole-3-carboxamide]
Btk; [2]
  IC50: < 10 nM
Btk; [1]
  IC50: 0.139 nM
TEC
  IC50: 22 nM
Panel of kinases
  IC50: 44 nM

## CN(C)C/C=C/C(=O)N1CC[C@@H](Nc2n[nH]c3nccc(-c4ccc(CNC(=O)c5noc(C(C)(C)C)n5)c(F)c4)c23)C1 [Example 25, 5-tert-butyl-N-{[4-(3-{[(3R)-1-[(2E)-4-(dimethylamino)but-2-enoyl]pyrrolidin-3-yl]amino}-1H-pyrazolo[3,4-b]pyridin-4-yl)-2-fluorophenyl]methyl}-1,2,4-oxadiazole-3-carboxamide]
Btk; [2]
  IC50: < 10 nM
Btk; [1]
  IC50: 0.481 nM
TEC
  IC50: 175 nM
Panel of kinases
  IC50: 794 nM

## C=CC(=O)N1CC[C@@H](Nc2n[nH]c3nccc(-c4ccc(CN5CCn6c(cc7c6CC(C)(C)C7)C5=O)c(F)c4)c23)C1 [Example 53]
Btk; [2]
  IC50: < 10 nM
Btk; [1]
  IC50: 0.623 nM
TEC
  IC50: 152 nM
  TEC/Btk: 244
Panel of kinases
  IC50: 310 nM

## C[C@H]1NCCC[C@H]1Nc1n[nH]c2nccc(-c3ccc(CNC(=O)c4noc(C(C)(C)C)n4)c(F)c3)c12 [Example 55]
Btk; [1]
  IC50: 29.2 nM
TEC
  IC50: > 10000 nM
  TEC/Btk: >100
Panel of kinases
  IC50: > 10000 nM

## CC(C)(C)c1cccc(C(=O)NCc2ccc(-c3ccnc4[nH]nc(N[C@@H]5CCNC5)c34)cc2F)c1 [Example 62, 3-tert-butyl-N-{[2-fluoro-4-(3-{[(3R)-pyrrolidin-3-yl]amino}-1H-pyrazolo[3,4-b]pyridin-4-yl)phenyl]methyl}benzamide]
Btk; [1]
  IC50: 861 nM
TEC
  IC50: 3340 nM
  TEC/Btk: 4
Panel of kinases
  IC50: 2140 nM

## CC(C)(C)c1cc(C(=O)NCc2ccc(-c3ccnc4[nH]nc(N[C@@H]5CCNC5)c34)cc2F)no1 [Example 63, 5-tert-butyl-N-{[2-fluoro-4-(3-{[(3R)-pyrrolidin-3-yl]amino}-1H-pyrazolo[3,4-b]pyridin-4-yl)phenyl]methyl}-1,2-oxazole-3-carboxamide]
Btk; [1]
  IC50: 10.2 nM
TEC
  IC50: 7860 nM
  TEC/Btk: 771
Panel of kinases
  IC50: > 10000 nM

## CC(C)(C)n1ccc(C(=O)NCc2ccc(-c3ccnc4[nH]nc(N[C@@H]5CCNC5)c34)cc2F)n1 [Example 64, 1-tert-butyl-N-{[2-fluoro-4-(3-{[(3R)-pyrrolidin-3-yl]amino}-1H-pyrazolo[3,4-b]pyridin-4-yl)phenyl]methyl}-1H-pyrazole-3-carboxamide]
Btk; [1]
  IC50: 167 nM
TEC
  IC50: > 10000 nM
  TEC/Btk: >100
Panel of kinases
  IC50: > 10000 nM

## C=CC(=O)N1CC[C@@H](Nc2n[nH]c3nccc(-c4ccc(CNC(=O)c5cc(C(C)(C)C)on5)c(F)c4)c23)C1 [Example 65, 5-tert-butyl-N-{[2-fluoro-4-(3-{[(3R)-1-(prop-2-enoyl)pyrrolidin-3-yl]amino}-1H-pyrazolo [3,4-b]pyridin-4-yl)phenyl]methyl}-1,2-oxazole-3-carboxamide]
Btk; [2]
  IC50: < 10 nM
Btk; [1]
  IC50: 0.0792 nM
TEC
  IC50: 42 nM
  TEC/Btk: 529
Panel of kinases
  IC50: 78 nM

## C=CC(=O)N1CC[C@@H](Nc2n[nH]c3nccc(-c4ccc(CNC(=O)c5ccn(C(C)(C)C)n5)c(F)c4)c23)C1 [Example 66, 1-tert-butyl-N-{[2-fluoro-4-(3-{[(3R)-1-(prop-2-enoyl)pyrrolidin-3-yl]amino}-1H-pyrazolo[3,4-b]pyridin-4-yl)phenyl]methyl}-1H-pyrazole-3-carboxamide]
Btk; [2]
  IC50: < 10 nM
Btk; [1]
  IC50: 0.42 nM
TEC
  IC50: 403 nM
  TEC/Btk: 959
Panel of kinases
  IC50: 219 nM

## C[C@H]1CC[C@@H](Nc2n[nH]c3nccc(-c4ccc(CNC(=O)c5noc(C(C)(C)C)n5)c(F)c4)c23)CN1C(=O)N(C)C [Example 67, (2S,5R)-5-{[4-(4-{[(5-tert-butyl-1,2,4-oxadiazol-3-yl)formamido]methyl}-3-fluorophenyl)-1H-pyrazolo[3,4-b]pyridin-3-yl]amino}-N,N,2-trimethylpiperidine-1-carboxamide]
Btk; [2]
  IC50: < 10 nM
Btk; [1]
  IC50: 0.359 nM
TEC
  IC50: 121 nM
  TEC/Btk: 337
Panel of kinases
  IC50: 137 nM

## C[C@H]1CC[C@@H](Nc2n[nH]c3nccc(-c4ccc(CNC(=O)c5noc(C(C)(C)C)n5)c(F)c4)c23)CN1C=O [Example 68, 5-tert-butyl-N-{[2-fluoro-4-(3-{[(3R,6S)-1-formyl-6-methylpiperidin-3-yl]amino}-1H-pyrazolo[3,4-b]pyridin-4-yl)phenyl]methyl}-1,2,4-oxadiazole-3-carboxamide]
Btk; [2]
  IC50: < 10 nM
Btk; [1]
  IC50: 0.601 nM
TEC
  IC50: 258 nM
  TEC/Btk: 429
Panel of kinases
  IC50: 541 nM

## CC(C)(C)c1nc(C(=O)NCc2ccc(-c3ccnc4[nH]nc(N[C@@H]5CCCNC5)c34)cc2F)no1 [Example 69, 5-tert-butyl-N-{[2-fluoro-4-(3-{[(3R)-piperidin-3-yl]amino}-1H-pyrazolo[3,4-b]pyridin-4-yl)phenyl]methyl}-1,2,4-oxadiazole-3-carboxamide]
Btk; [1]
  IC50: 10.4 nM
TEC
  IC50: 4510 nM
  TEC/Btk: 434
Panel of kinases
  IC50: 6970 nM

## CC(C)(C)c1nc(C(=O)NC2(c3ccc(-c4ccnc5[nH]nc(N[C@@H]6CCCNC6)c45)cc3)CC2)no1 [Example 70, 5-tert-butyl-N-{1-[4-(3-{[(3R)-piperidin-3-yl]amino}-1H-pyrazolo[3,4-b]pyridin-4-yl)phenyl]cyclopropyl}-1,2,4-oxaidazole-3-carboxamide]
Btk; [1]
  IC50: 180 nM
TEC
  IC50: > 10000 nM
  TEC/Btk: >100
Panel of kinases
  IC50: > 10000 nM

## CC(C)(C)c1noc(C(=O)NC2(c3ccc(-c4ccnc5[nH]nc(N[C@@H]6CCNC6)c45)cc3)CC2)n1 [Example 71, 3-tert-butyl-N-{1-[4-(3-{[(3R)-pyrrolidin-3-yl]amino}-1H-pyrazolo[3,4-b]pyridin-4-yl)phenyl]cyclopropyl}-1,2,4-oxadiazole-5-carboxamide]
Btk; [1]
  IC50: 42.2 nM
TEC
  IC50: > 10000 nM
  TEC/Btk: >100
Panel of kinases
  IC50: > 10000 nM
